From US20260109707A1, “HETEROBIFUNCTIONAL COMPOUNDS AND METHODS OF TREATING DISEASE” (Halda Therapeutics OpCo. Inc., priority 2022, published 2026) come the findings set out here.

Test [1] deals with T-Rex 293 cell line SC3 cells lacking increased expression of androgen receptor protein. In words: Cellular growth inhibition assay, T-Rex 293 SC3 cells without doxycycline (CellTiter-Glo, 72 hours). The test is classed as cell-based. Particulars: T-Rex 293 cell line SC3 cells not exposed to doxycycline (lacking increased androgen receptor expression). The method, boiled down:
(§1)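 Growth inhibition is measured in an inducible AR-expressing T-Rex 293 clone, SC3, cultured with or without 10 ng/mL doxycycline in hormone-depleted medium. Test compounds are applied for 72 hours. GI50 values derive from CellTiter-Glo 2.0 signal fitted by four-parameter regression.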

Test [2] concerns T-Rex 293 cell line SC3 cells having increased expression of androgen receptor protein due to exposure to doxycycline. In words: Cellular growth inhibition assay, T-Rex 293 SC3 cells with doxycycline (CellTiter-Glo, 72 hours). The test is classed as cell-based. To be noted: T-Rex 293 SC3 cells with increased androgen receptor expression due to doxycycline (10 ng/mL). In outline: as §1
(In ATP-based viability assays light output follows the ATP content of the culture.)

The test system of test [3] is VCaP cells. The experiment in a line: Cellular growth inhibition assay for VCaP cells (CellTiter-Glo, 72 hours). The format is cell-based, human. In outline:
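Luminescent viability signal after 72 h of compound exposure gave GI50 values by four-parameter nonlinear regression. Compounds were added in 0.5% DMSO to cells plated 24 h earlier at 5000/well in DMEM containing 10% FBS.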

Read-outs that look alike come from different tables or passages of the source.

For the compound `Cc1sc2c(c1C)C(c1ccc(C3CCC4(CCCN(c5ccc(C(=O)N[C@H]6CC[C@H](Oc7ccc(C#N)c(Cl)c7)CC6)nn5)C4)CC3)cc1)=NC(C(F)(F)F)c1nnc(C)n1-2` (stereo partly drawn) [I-694], the GI50 in test [1] (72 h) was above 3 µM; in test [2] (72 h), above 3 µM; in test [3] (Homo sapiens, VCaP, 72 h), above 3 µM.
Turning to `Cc1sc2c(c1C)C(c1ccc(C3CCC4(CCCN(c5ccc(C(=O)N[C@H]6CC[C@H](Oc7ccc(C#N)c(Cl)c7)CC6)nn5)C4)CC3)cc1)=NC(C(F)(F)F)c1nnc(C)n1-2` (stereo partly drawn) [I-695], the GI50 in test [1], in test [2] and in test [3] was above 3 µM in each case.
`Cc1sc2c(c1C)C(c1ccc(C3CCC4(CCCN(c5ccc(C(=O)N[C@H]6CC[C@H](Oc7ccc(C#N)c(Cl)c7)CC6)nn5)C4)CC3)cc1)=NC(C(F)(F)F)c1nnc(C)n1-2` (stereo partly drawn) [I-696]: the GI50 in test [1], in test [2] and in test [3] was above 3 µM in each case.
`Cc1sc2c(c1C)C(c1ccc(C3CCC4(CCCN(c5ccc(C(=O)N[C@H]6CC[C@H](Oc7ccc(C#N)c(Cl)c7)CC6)nn5)C4)CC3)cc1)=NC(C(F)(F)F)c1nnc(C)n1-2` (stereo partly drawn) [I-697]: the GI50 in test [1], in test [2] and in test [3] was above 3 µM in each case.
In the case of `Cc1sc2c(c1C)C(c1ccc(N3C4CCC3CC3(CCN(c5ccc(C(=O)N[C@H]6CC[C@H](Oc7ccc(C#N)c(Cl)c7)CC6)nn5)C3)C4)cc1)=N[C@@H](C)c1nnc(C)n1-2` (stereo partly drawn) [I-698], the GI50 in test [1] is below 0.5 µM; in test [2], below 0.5 µM; in test [3] (Homo sapiens, VCaP, 72 h), below 0.5 µM.
Take `Cc1sc2c(c1C)C(c1ccc(CCCC3CCCN(c4ccc(C(=O)N[C@H]5CC[C@H](Oc6ccc(C#N)c(Cl)c6)CC5)nn4)CC3)cn1)=N[C@@H](C)c1nnc(C)n1-2` (stereo partly drawn) [I-699]: the GI50 in test [1] was above 3 µM; in test [2] (72 h), below 0.5 µM; in test [3] (Homo sapiens, VCaP, 72 h) it was below 0.5 µM.
Regarding `Cc1sc2c(c1C)C(c1ccc(CCCC3CCCN(c4ccc(C(=O)N[C@H]5CC[C@H](Oc6ccc(C#N)c(Cl)c6)CC5)nn4)CC3)cn1)=N[C@@H](C)c1nnc(C)n1-2` (stereo partly drawn) [I-700], the GI50 in test [1], in test [2] and in test [3] was below 0.5 µM each time.
Regarding `Cc1sc2c(c1C)C(c1ccc(OC3CCC4(CCN(c5ccc(C(=O)N[C@H]6CC[C@H](Oc7ccc(C#N)c(Cl)c7)CC6)nn5)C4)C3)cc1)=N[C@@H](C)c1nnc(C)n1-2` (stereo partly drawn) [I-701], the GI50 in test [1] was below 0.5 µM; in test [2] it was below 0.5 µM; in test [3] (Homo sapiens, VCaP, 72 h) it was below 0.5 µM.
Consider `Cc1sc2c(c1C)C(c1ccc(OC3CCC4(CCN(c5ccc(C(=O)N[C@H]6CC[C@H](Oc7ccc(C#N)c(Cl)c7)CC6)nn5)C4)C3)cc1)=N[C@@H](C)c1nnc(C)n1-2` (stereo partly drawn) [I-702], for which the GI50 in test [1] was 0.5 to 1.5 µM; in test [2], below 0.5 µM; in test [3], below 0.5 µM.
For the compound `Cc1sc2c(c1C)C(c1ccc(N3C[C@H]4CN(c5ccc(C(=O)N[C@H]6CC[C@H](Oc7ccc(C#N)c(Cl)c7)CC6)nn5)C[C@H]4C3)c(F)c1)=N[C@@H](C)c1nnc(C)n1-2` [I-703], the GI50 is below 0.5 µM in test [1] (72 h); below 0.5 µM in test [2] (72 h); 0.5 to 1.5 µM in test [3] (Homo sapiens, VCaP, 72 h).
With `Cc1sc2c(c1C)C(c1ccc(N3C[C@@]4(C)CN(c5ccc(C(=O)N[C@H]6CC[C@H](Oc7ccc(C#N)c(Cl)c7)CC6)nn5)C[C@@]4(C)C3)cc1)=N[C@@H](C)c1nnc(C)n1-2` [I-704], the GI50 in test [1] (72 h) was above 3 µM; in test [2] (72 h), below 0.5 µM; in test [3] (Homo sapiens, VCaP, 72 h), 0.5 to 1.5 µM.
In the case of `Cc1sc2c(c1C)C(c1ccc(N3C[C@@H]4CN(c5ccc(C(=O)N[C@H]6CC[C@H](Oc7ccc(C#N)c(Cl)c7)CC6)nn5)C[C@H]4C3)cc1)=N[C@@H](C)c1nnc(C)n1-2` [I-706], the GI50 in test [1], in test [2] and in test [3] was below 0.5 µM in each case.
Consider `Cc1sc2c(c1C)C(c1cccc(N3CCC4(CCN(c5ccc(C(=O)N[C@H]6CC[C@H](Oc7ccc(C#N)c(Cl)c7)CC6)nn5)C4)C3)c1)=N[C@@H](C)c1nnc(C)n1-2` (stereo partly drawn) [I-708], for which the GI50 in test [1] was 1.5 to 3 µM; in test [2] it was below 0.5 µM; in test [3] it was below 0.5 µM.
`Cc1sc2c(c1C)C(c1cccc(OC3CCC4(CC3)CCN(c3ccc(C(=O)N[C@H]5CC[C@H](Oc6ccc(C#N)c(Cl)c6)CC5)nn3)C4)c1)=N[C@@H](C)c1nnc(C)n1-2` (stereo partly drawn) [I-709]: the GI50 in test [1] is above 3 µM; in test [2], below 0.5 µM; in test [3] (Homo sapiens, VCaP, 72 h), below 0.5 µM.
Regarding `Cc1sc2c(c1C)C(c1cccc(N3CC4(CCCN(c5ccc(C(=O)N[C@H]6CC[C@H](Oc7ccc(C#N)c(Cl)c7)CC6)nn5)C4)C3)c1)=N[C@@H](C)c1nnc(C)n1-2` [I-710], the GI50 in test [1] (72 h) is above 3 µM; in test [2] (72 h), below 0.5 µM; in test [3] (Homo sapiens, VCaP, 72 h), above 3 µM.
In the case of `Cc1sc2c(c1C)C(c1cccc(CC3CC4(CCCN(c5ccc(C(=O)N[C@H]6CC[C@H](Oc7ccc(C#N)c(Cl)c7)CC6)nn5)C4)C3)c1)=N[C@@H](C)c1nnc(C)n1-2` (stereo partly drawn) [I-711], the GI50 in test [1] (72 h) is above 3 µM; in test [2] (72 h) it was below 0.5 µM; in test [3] (Homo sapiens, VCaP, 72 h), below 0.5 µM.
`Cc1sc2c(c1C)C(c1cccc(CC3CC4(CCCN(c5ccc(C(=O)N[C@H]6CC[C@H](Oc7ccc(C#N)c(Cl)c7)CC6)nn5)C4)C3)c1)=N[C@@H](C)c1nnc(C)n1-2` (stereo partly drawn) [I-712]: the results for the GI50 in test [1], in test [2] and in test [3] were above 3 µM, below 0.5 µM and below 0.5 µM, respectively.
On to `Cc1sc2c(c1C)C(c1cccc(CC3CCC4(CC3)CCN(c3ccc(C(=O)N[C@H]5CC[C@H](Oc6ccc(C#N)c(Cl)c6)CC5)nn3)C4)c1)=N[C@@H](C)c1nnc(C)n1-2` (stereo partly drawn) [I-713], for which the GI50 was above 3 µM in test [1]; above 3 µM in test [2]; below 0.5 µM in test [3] (Homo sapiens, VCaP, 72 h).
Consider `Cc1sc2c(c1C)C(c1cccc(CC3CCC4(CC3)CCN(c3ccc(C(=O)N[C@H]5CC[C@H](Oc6ccc(C#N)c(Cl)c6)CC5)nn3)C4)c1)=N[C@@H](C)c1nnc(C)n1-2` (stereo partly drawn) [I-714], for which the GI50 in test [1], in test [2] and in test [3] was below 0.5 µM throughout.
Take `Cc1sc2c(c1C)C(c1cccc(OC3CC4(CCCN(c5ccc(C(=O)N[C@H]6CC[C@H](Oc7ccc(C#N)c(Cl)c7)CC6)nn5)C4)C3)c1)=N[C@@H](C)c1nnc(C)n1-2` (stereo partly drawn) [I-715]: the GI50 was 0.5 to 1.5 µM in test [1], below 0.5 µM in test [2] and below 0.5 µM in test [3].
In the case of `Cc1sc2c(c1C)C(c1ccccc1OC1CC3(CCCN(c4ccc(C(=O)N[C@H]5CC[C@H](Oc6ccc(C#N)c(Cl)c6)CC5)nn4)C3)C1)=N[C@@H](C)c1nnc(C)n1-2` (stereo partly drawn) [I-716], the GI50 in test [1] (72 h) is above 3 µM; in test [2] (72 h) it was above 3 µM; in test [3] (Homo sapiens, VCaP, 72 h), above 3 µM.
`Cc1sc2c(c1C)C(c1ccccc1OC1CC3(CCCN(c4ccc(C(=O)N[C@H]5CC[C@H](Oc6ccc(C#N)c(Cl)c6)CC5)nn4)C3)C1)=N[C@@H](C)c1nnc(C)n1-2` (stereo partly drawn) [I-717]: the GI50 in test [1], in test [2] and in test [3] was above 3 µM each time.
Turning to `Cc1sc2c(c1C)C(c1ccc(C3CCC4(CC3)CCN(c3ccc(C(=O)N[C@H]5CC[C@H](Oc6ccc(C#N)c(Cl)c6)CC5)nn3)C4)cn1)=NC1(CC1)c1nnc(C)n1-2` (stereo partly drawn) [I-718], the values for the GI50 in test [1], in test [2] and in test [3] were above 3 µM, 1.5 to 3 µM and below 0.5 µM, respectively.
For the compound `Cc1sc2c(c1C)C(c1ccc(N3CCC4(CCCN(c5ccc(C(=O)N[C@H]6CC[C@H](Oc7ccc(C#N)c(Cl)c7)CC6)nn5)C4)CC3)cc1)=NC(C(F)(F)F)c1nnc(C)n1-2` (stereo partly drawn) [I-721], the GI50 is above 3 µM in test [1] (72 h), below 0.5 µM in test [2] and below 0.5 µM in test [3].
For `Cc1sc2c(c1C)C(c1ccc(N3CCC4(CCCN(c5ccc(C(=O)N[C@H]6CC[C@H](Oc7ccc(C#N)c(Cl)c7)CC6)nn5)C4)CC3)cc1)=NC(C(F)(F)F)c1nnc(C)n1-2` (stereo partly drawn) [I-722], the GI50 in test [1], in test [2] and in test [3] was above 3 µM each time.
Consider `Cc1sc2c(c1C)C(c1ccc(C#CC3CC4(C3)CN(c3ccc(C(=O)N[C@H]5CC[C@H](Oc6ccc(C#N)c(Cl)c6)CC5)nn3)C4)cc1)=NC(C(F)(F)F)c1nnc(C)n1-2` (stereo partly drawn) [I-723], for which the GI50 in test [1] was above 3 µM; in test [2], above 3 µM; in test [3] (Homo sapiens, VCaP, 72 h), below 0.5 µM.
For the compound `Cc1sc2c(c1C)C(c1ccc(N3CC4(CC(Cc5ccc(C(=O)N[C@H]6CC[C@H](Oc7ccc(C#N)c(Cl)c7)CC6)nn5)C4)C3)cc1)=NC(C(F)(F)F)c1nnc(C)n1-2` (stereo partly drawn) [I-724], the GI50 in test [1] (72 h) was above 3 µM; in test [2], above 3 µM; in test [3] (Homo sapiens, VCaP, 72 h), below 0.5 µM.
In the case of `Cc1sc2c(c1C)C(c1ccc(N3CC4(CC(Cc5ccc(C(=O)N[C@H]6CC[C@H](Oc7ccc(C#N)c(Cl)c7)CC6)nn5)C4)C3)cc1)=NC(C(F)(F)F)c1nnc(C)n1-2` (stereo partly drawn) [I-725], the figures for the GI50 in test [1], in test [2] and in test [3] were above 3 µM, below 0.5 µM and below 0.5 µM, respectively.
Regarding `Cc1sc2c(c1C)C(c1ccc(N3CCC4(CCN(c5ccc(C(=O)N[C@H]6CC[C@H](Oc7ccc(C#N)c(Cl)c7)CC6)nn5)CC4)C3)cc1)=NC(C(F)(F)F)c1nnc(C)n1-2` (stereo partly drawn) [I-726], the GI50 in test [1] (72 h) was above 3 µM; in test [2], below 0.5 µM; in test [3] (Homo sapiens, VCaP, 72 h) it was below 0.5 µM.
Consider `Cc1sc2c(c1C)C(c1ccc(N3CCC4(CCN(c5ccc(C(=O)N[C@H]6CC[C@H](Oc7ccc(C#N)c(Cl)c7)CC6)nn5)CC4)C3)cc1)=NC(C(F)(F)F)c1nnc(C)n1-2` (stereo partly drawn) [I-727], for which the GI50 was above 3 µM in test [1], above 3 µM in test [2] and below 0.5 µM in test [3].
Regarding `Cc1sc2c(c1C)C(c1ccc(CC3CC4(CCN(c5ccc(C(=O)N[C@H]6CC[C@H](Oc7ccc(C#N)c(Cl)c7)CC6)nn5)CC4)C3)cc1)=NC(C(F)(F)F)c1nnc(C)n1-2` (stereo partly drawn) [I-728], the GI50 in test [1] (72 h), in test [2] and in test [3] was above 3 µM each time.

As usually defined, the GI50 is the concentration at which growth is held to half of that of the control. A lower GI50 goes with greater sensitivity of the cells.
